Results as given in US9944670B2, “Gemcitabine derivatives, compositions comprising same and pharmaceutical applications thereof” (HANGZHOU MINSHENG INSTITUTES FOR PHARMA RESEARCH CO., LTD, priority 2013, dated 2018).
Values joined by “and” are separate entries in the source; they are usually repeats but may differ in a detail not shown here. Equal entries are not always repeated. Structures can show the parent of a compound that is named as a salt.

Experiments:
MCF-7-ADR = experiment: MTT cytotoxic activity against drug-resistant tumor cell line; type: cell-based, Human; conditions: for IC50: NCI/ADR-RES, doxorubicin-resistant human breast cancer cells, 48 hours incubation, MTT, Bliss method
Method: Purpose: Compare differences of cytotoxic activity against drug-resistant tumor cell lines between gemcitabine derivatives (Compounds of examples 1-9 of the present invention) and gemcitabine (known compound, as “comparative example” in the table below).
Materials and Methods: Human breast cancer doxorubicin-resistant cell line MCF-7-ADR was cultured in 1640 medium containing 5% fetal calf serum; gemcitabine and its derivative GI-06 were dissolved in DMSO, frozen preserved at −20° C., and diluted by 1640 medium containing 5% fetal calf serum to the appropriate concentration before they were used. The final concentration of DMSO solution was 0.5%. Activity tests: MCF-7-ADR cells in the logarithmic growth phase were seeded 3×10^3 per well in 96-well culture plates. The medium was changed after incubating for 24 hours by adding test solutions at different concentrations, while the control group was added DMSO medium with concentration of 0.5%, and the cells continued to be incubated for 48 hours. Then the cell activity was assayed by MTT. Inhibition rate (%)=([…](absorbance of the blank control group−absorbance of the administration group)/absorbance of the blank control group)×100%; IC50: calculated by Bliss method.

HCT-116 colon cancer = experiment: Growth of subcutaneous transplanted tumor in nude mice bearing HCT-116 colon cancer
Excerpt: Purpose: 4 compounds' influence to the growth of subcutaneous transplanted tumor in nude mice bearing HCT-116 colon cancer
Positive control: Gemcitabine hydrochloride.
Experimental animals: Nude mice, female, 4-5 weeks old, 60 cases.
Cell lines: HCT-116 colon cancer cell.
Modeling: Five mice were inoculated by cell suspension before the experiment, after passaging 4 times in nude mice, prepared model by subcutaneous inoculation using the interpolation block tumor masses.
Route of administration: Gemcitabine hydrochloride group was adminstered by intraperitoneal injection, the rest groups were adminstered by oral gavage.
The adminstered volume: 0.1 ml/10 g
Observation time: Consecutive observation for 15 days after administration, tumor volume was measured twice a week. Stop administration at the 15th day.

A2780 ovarian cancer = experiment: Growth of subcutaneous transplanted tumor in nude mice bearing A2780 ovarian cancer
Excerpt: Test sample: GI-06; Positive control: gemcitabine hydrochloride
Experimental animals: nude mice, female, 4-5 weeks old, 40 cases.
Cell lines: A2780 ovarian cancer cell, purchased from Shanghai institute of cell biology.
Grouping: When tumor volume grew to 100 mm^3, nude mice which reached standard were randomly divided into five groups, namely solvent control group, gemcitabine hydrochloride group, GI-06 high, medium, low dosage groups, 6 nude mice in each group.
The administration volume: 0.1 ml/10 g
Frequency of administration: Gemcitabine hydrochloride was respectively adminstered twice in the first and third week (D1, D4, D15, D18), 4 times in total; Each GI-06 dosage group was adminstered once a day, 21 days in total.
Animals were sacrificed on the 22nd day, the tumors were weighed.
Statistical Methods: Excel statistical software package, ANOVA analysis.

[1] = 15 mg/kg oral gavage, five consecutive days a week, 10 times in total
[2] = high dosage 12 mg/kg oral gavage once a day, 21 days
[3] = low dosage 4 mg/kg oral gavage once a day, 21 days
[4] = medium dosage 8 mg/kg oral gavage once a day, 21 days
[5] = low dosage 5 mg/kg oral gavage, 12 times in total
[6] = medium dosage 10 mg/kg oral gavage, 12 times in total
[7] = 160 mg/kg intraperitoneal injection, D1, D4, D15, D18
[8] = 160 mg/kg intraperitoneal injection, D1 and D4, twice in total

Weight (g) D15 (HCT-116 colon cancer; [1]) [g]	Structure (SMILES)	IC50 (MCF-7-ADR) [µM]	T/C (%) D15 (HCT-116 colon cancer; [1])	Tumor volume (mm^3) D15 (HCT-116 colon cancer; [1])	other results
–	CC(C)(C)c1cnc(CSc2cnc(NC(=O)C(=O)Nc3ccn([C@@H]4O[C@H](CO)[C@@H](O)C4(F)F)c(=O)n3)s2)o1 [GI-01, N-(5-(((5-(t-butyl)oxazol-2-yl)methyl)thio)thiazol-2-yl)-N′-(1-((2R,4R,5R)-3,3-difluoro-4-hydroxy-5-(hydroxymethyl)tetrahydrofuran-2-yl)-2-oxo-1,2-dihydro-pyrimidin-4-yl)oxamide]	5.56	–	–	–
–	CC(C)(C)c1cnc(CSc2cnc(NC(=O)CC(=O)Nc3ccn([C@@H]4O[C@H](CO)[C@@H](O)C4(F)F)c(=O)n3)s2)o1 [GI-02, N-(5-(((5-(t-butyl)oxazol-2-yl)methyl)thio)thiazol-2-yl)-N′-(1-((2R,4R,5R)-3,3-difluoro-4-hydroxy-5-(hydroxymethyl)tetrahydrofuran-2-yl)-2-oxo-1,2-dihydro-pyrimidin-4-yl)malonamide]	4.77	–	–	–
–	CC(C)(C)c1cnc(CSc2cnc(NC(=O)CCC(=O)Nc3ccn([C@@H]4O[C@H](CO)[C@@H](O)C4(F)F)c(=O)n3)s2)o1 [GI-03, N-(5-(((5-(t-butyl)oxazol-2-yl)methyl)thio)thiazol-2-yl)-N′-(1-((2R,4R,5R)-3,3-difluoro-4-hydroxy-5-(hydroxymethyl)tetrahydrofuran-2-yl)-2-oxo-1,2-dihydro-pyrimidin-4-yl)succinamide]	6.13	–	–	–
19.9 ± 1.2	CC(C)(C)c1cnc(CSc2cnc(NC(=O)CCCC(=O)Nc3ccn([C@@H]4O[C@H](CO)[C@@H](O)C4(F)F)c(=O)n3)s2)o1 [GI-04, N-(5-(((5-(t-butyl)oxazol-2-yl)methyl)thio)thiazol-2-yl)-N′-(1-((2R,4R,5R)-3,3-difluoro-4-hydroxy-5-(hydroxymethyl)tetrahydrofuran-2-yl)-2-oxo-1,2-dihydro-pyrimidin-4-yl)glutaramide]	3.15	60.9%	1008.78 ± 174.29 mm^3	–
18.1 ± 1.2	CC(C)(C)c1cnc(CSc2cnc(NC(=O)CCCCC(=O)Nc3ccn([C@@H]4O[C@H](CO)[C@@H](O)C4(F)F)c(=O)n3)s2)o1 [GI-05, N-(5-(((5-(t-butyl)oxazol-2-yl)methyl)thio)thiazol-2-yl)-N′-(1-((2R,4R,5R)-3,3-difluoro-4-hydroxy-5-(hydroxymethyl)tetrahydrofuran-2-yl)-2-oxo-1,2-dihydro-pyrimidin-4-yl)adipamide]	2.46	56.14%	935.14 ± 130.33 mm^3	–
18.0 ± 1.5	CC(C)(C)c1cnc(CSc2cnc(NC(=O)CCCCCC(=O)Nc3ccn([C@@H]4O[C@H](CO)[C@@H](O)C4(F)F)c(=O)n3)s2)o1 [GI-06, N-(5-(((5-(t-butyl)oxazol-2-yl)methyl)thio)thiazol-2-yl)-N′-(1-((2R,4R,5R)-3,3-difluoro-4-hydroxy-5-(hydroxymethyl)tetrahydrofuran-2-yl)-2-oxo-1,2-dihydro-pyrimidin-4-yl)pimelamide]	1.38	12% and 12.64%	208.14 ± 80.53⋆ mm^3	inhibitory activity against MCF-7-ADR proliferation (in words) (MCF-7-ADR; compared with gemcitabine): strongest anti-tumor activity; T/C (%) D22 (A2780 ovarian cancer; [2]): 0.46%; Tumor volume (mm^3) D22 (A2780 ovarian cancer; [2]): 19.83 ± 35.11^⋆ mm^3; T/C (%) D22 (A2780 ovarian cancer; [3]): 39.55%; Tumor volume (mm^3) D22 (A2780 ovarian cancer; [3]): 1757.57 ± 1306.74^⋆ mm^3; T/C (%) D22 (A2780 ovarian cancer; [4]): 2.11%; Tumor volume (mm^3) D22 (A2780 ovarian cancer; [4]): 92.38 ± 159.91^⋆ mm^3; T/C (%) D15 (HCT-116 colon cancer; [5]): 27% and 27.50%; Tumor volume (mm^3) D15 (HCT-116 colon cancer; [5]): 45.172 ± 214.92⋆ mm^3; Weight (g) D15 (HCT-116 colon cancer; [5]): 17.2 ± 0.8 g; T/C (%) D15 (HCT-116 colon cancer; [6]): 13% and 13.09%; Tumor volume (mm^3) D15 (HCT-116 colon cancer; [6]): 222.43 ± 113.48⋆ mm^3; Weight (g) D15 (HCT-116 colon cancer; [6]): 17.5 ± 1.1 g
–	CC(C)(C)c1cnc(CSc2cnc(NC(=O)CCCCCCC(=O)Nc3ccn([C@@H]4O[C@H](CO)[C@@H](O)C4(F)F)c(=O)n3)s2)o1 [GI-07, N-(5-(((5-(t-butyl)oxazol-2-yl)methyl)thio)thiazol-2-yl)-N′-(1-((2R,4R,5R)-3,3-difluoro-4-hydroxy-5-(hydroxymethyl)tetrahydrofuran-2-yl)-2-oxo-1,2-dihydro-pyrimidin-4-yl)suberamide]	3.55	–	–	–
–	CC(C)(C)c1cnc(CSc2cnc(NC(=O)CCCCCCCC(=O)Nc3ccn([C@@H]4O[C@H](CO)[C@@H](O)C4(F)F)c(=O)n3)s2)o1 [GI-08, N-(5-(((5-(t-butyl)oxazol-2-yl)methyl)thio)thiazol-2-yl)-N′-(1-((2R,4R,5R)-3,3-difluoro-4-hydroxy-5-(hydroxymethyl)tetrahydrofuran-2-yl)-2-oxo-1,2-dihydro-pyrimidin-4-yl)azelamide]	3.29	–	–	–
18.6 ± 1.4	CC(C)(C)c1cnc(CSc2cnc(NC(=O)CCCCCCCCC(=O)Nc3ccn([C@@H]4O[C@H](CO)[C@@H](O)C4(F)F)c(=O)n3)s2)o1 [GI-09, N-(5-(((5-(t-butyl)oxazol-2-yl)methyl)thio)thiazol-2-yl)-N′-(1-((2R,4R,5R)-3,3-difluoro-4-hydroxy-5-(hydroxymethyl)tetrahydrofuran-2-yl)-2-oxo-1,2-dihydro-pyrimidin-4-yl)sebacamide]	2.66	43.26%	724.50 ± 158.19 mm^3	–
–	Nc1ccn([C@@H]2O[C@H](CO)[C@@H](O)C2(F)F)c(=O)n1 [Gemcitabine hydrochloride, reference compound]	–	–	–	Tumor volume (mm^3) D22 (A2780 ovarian cancer; [7]): 59.97 ± 72.33^⋆ mm^3; Tumor volume (mm^3) D15 (HCT-116 colon cancer; [8]): 99.90 ± 55.92⋆ mm^3; Weight (g) D15 (HCT-116 colon cancer; [8]): 20.0 ± 1.5 g; T/C (%) D15 (HCT-116 colon cancer; 160 mg/kg intraperitoneal injection, D1 and D4, twice in total, hydrochloride): 5.83%; T/C (%) D15 (HCT-116 colon cancer; 160 mg/kg intraperitoneal injection, D1 and D4, twice in total, listed as gemcitabine hydrochloride, hydrochloride): 5.8%
–	Nc1ccn([C@@H]2O[C@H](CO)[C@@H](O)C2(F)F)c(=O)n1 [gemcitabine]	> 10	–	–	T/C (%) D22 (A2780 ovarian cancer; [7]): 1.32%
